In patent US20030176456A1, “Methods for reducing alcohol cravings in chronic alcoholics” (priority 2001, published 2003):

Assays:
[1] = Rowlett et al., submitted; cited from earlier work
GABAA α1β3γ2 receptors = molecular target: T1, GABAA α1β3γ2 receptors (Rattus norvegicus, UniProt P18508+P62813); experiment: Xenopus oocyte expression assay, modulation of GABA current; assay type: cell-based; conditions: saturating 1-10 μM modulator with EC50 GABA (50 μM); mean±S.D.
T1 construct: expressed in transfected cells; host or cells: Xenopus laevis oocytes injected with cRNA

rats = experiment: Reversal of suppression produced by chlordiazepoxide; assay type: in vivo, rat; conditions: 7.5 & 15 mg/kg; preliminary studies
[2] = molecular target: wild type BDZ receptors (cerebral cortical membranes); experiment: Radioligand displacement at cerebral cortical membranes; assay type: binding; conditions: read-out: Displacement of [3H] flunitrazepam in vitro, IC50; rat cerebral cortical membranes; mean of three or more experiments
Procedure: [^3H] […] In brief, rats were sacrificed by decapitation, and the cerebral cortex removed. […] Tissue was resuspended in an equal volume of buffer and recentrifuged. This procedure was repeated a total of three times and the tissue resuspended in 50 volumes of buffer. Incubations (1 mL) consisted of tissue (0.3 mL), drug solution (0.1 mL), buffer (0.5 mL) and radioligand (0.1 mL). […] The IC50 values were estimated using Hill plots.

mice [3] = conditions: Cox et al., 1998; cited from earlier work
mice [4] = conditions: doses as high as 60 mg/kg (Griebel et al., 1999); cited from earlier work
α1β3γ2 GABAA receptor = molecular target: T2, α1β3γ2 GABAA receptor (Homo sapiens, UniProt P14867+P18507); conditions: recombinant receptors (Cox et al., 1995); cited from earlier work
T2 construct: expressed in transfected cells

[5] = test system: high-alcohol drinking (HAD-1) rats; experiment: Operant self-administration, EtOH (and alternate-day sucrose); assay type: in vivo, rat
Procedure: Operant, Self-administration Apparatus, Training, and Drug Treatment Procedures Behavioral Testing Apparatus. Behavioral testing was conducted in 15 standard operant chambers (Coulbourn Instruments, Allentown, Pa.) equipped with two removable levers and two dipper fluid delivery systems enclosed in sound-attenuated cubicles as previously described (June et al., 1998b; 1998e). All dipper presentations provided a 1.5-sec access to a 0.1-ml dipper, followed by a 3-sec time out period. Above each lever, three stimulus lights (red, green and yellow) were present, and a stimulus delivery/reinforcer was indicated by illumination of the middle (green) stimulus light. Responses and reinforcements were recorded and controlled by a Dell computer using the 4.0 Coulbourn L2T2 operant software package.
HAD-1 Rats. To assess the capacity of βCCt to modulate EtOH responding in the VP, rats were trained to lever press for alcohol only (see below). However, an alternate-day access paradigm was employed to investigate the capacity of systemic injections of βCCt to modify EtOH and sucrose-maintained responding. […] In the VP study rats were initially trained to orally self-administer EtOH and water in daily 60 min sessions on a concurrent FRI schedule in a two-lever choice situation. After a period of stabilization on the FRI schedule, the response requirement was increased to a concurrent FR4 schedule and the water reinforcer was gradually eliminated from the protocol and replaced with EtOH. Thus, the VP HAD-1 rats responded concurrently for EtOH solutions on both levers. The VP HAD rats were then stabilized on this regimen for 3 weeks prior to any microinfusions. Responding was considered stable when responses were within ±20% of the average responses for five consecutive days.
Rats in, the systemic study were trained in a similar manner as the VP animals, except that after a 2 week stabilization period on the concurrently presented EtOH solutions, a series of preliminary studies were conducted to determine the sucrose concentration that produced response rates and profiles similar to that of EtOH during an alternate-day presentation schedule. Following this determination, rats were then stabilized on a regimen of 10% (v/v) EtOH on day 1, and 1% (w/v) sucrose on day 2. This alternate day paradigm continued until a two weeks. After this final stabilization period, the drug treatment phase began. Again, responding was considered stable when responses were within ±20% of the average responses for five consecutive days. The position of the levers and associated dippers for each reinforcer was alternated daily to control for the establishment of lever preference under all concurrent schedules when two different reinforcers were present.
βCCt was administered 15 min before the operant session to allow for optimal absorption and CNS distribution. βCCt was tested at doses of 1-40 mg/kg. The duration of the operant sessions was 60 min, however, subjects were tested at 24 and 48 hours post-drug administration to determine if any residual drug effects remained. A minimum of 72 and maximum of 96 hours was allocated between drug treatments to permit animals to return to baseline levels. This period prevented confounding of drug treatments due to residual effects. […] All systemic drug treatments were given in a randomized design.
The microinfusions were delivered immediately before the operant session with a Harvard infusion pump, during which time animals were able to move about freely in their home cages (for details see June et al., 2001). The injection cannula extended 1 mm beyond the tip of the guide cannulae. βCCt was dissolved in artificial cerebrospinal fluid (aCSF) (composition in mM: NaCl, 120; KCl, 4.8; KH2PO4, 1.2; MgSO4, 1.2; NaHCO3, 25; CaCl2, 2.5; d-glucose, 10). […]

T2 sequence (P14867 28-456): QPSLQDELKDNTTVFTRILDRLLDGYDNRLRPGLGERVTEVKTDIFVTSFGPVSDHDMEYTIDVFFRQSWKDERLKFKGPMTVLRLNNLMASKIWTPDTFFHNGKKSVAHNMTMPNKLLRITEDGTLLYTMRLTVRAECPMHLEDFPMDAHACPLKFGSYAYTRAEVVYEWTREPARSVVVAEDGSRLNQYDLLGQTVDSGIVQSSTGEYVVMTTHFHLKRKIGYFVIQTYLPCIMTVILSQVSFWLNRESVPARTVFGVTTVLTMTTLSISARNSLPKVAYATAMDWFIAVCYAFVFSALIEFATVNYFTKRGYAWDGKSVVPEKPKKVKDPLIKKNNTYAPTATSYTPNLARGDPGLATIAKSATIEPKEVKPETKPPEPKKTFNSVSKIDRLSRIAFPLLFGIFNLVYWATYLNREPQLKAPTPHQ
T2 sequence (P28472 26-473 partner): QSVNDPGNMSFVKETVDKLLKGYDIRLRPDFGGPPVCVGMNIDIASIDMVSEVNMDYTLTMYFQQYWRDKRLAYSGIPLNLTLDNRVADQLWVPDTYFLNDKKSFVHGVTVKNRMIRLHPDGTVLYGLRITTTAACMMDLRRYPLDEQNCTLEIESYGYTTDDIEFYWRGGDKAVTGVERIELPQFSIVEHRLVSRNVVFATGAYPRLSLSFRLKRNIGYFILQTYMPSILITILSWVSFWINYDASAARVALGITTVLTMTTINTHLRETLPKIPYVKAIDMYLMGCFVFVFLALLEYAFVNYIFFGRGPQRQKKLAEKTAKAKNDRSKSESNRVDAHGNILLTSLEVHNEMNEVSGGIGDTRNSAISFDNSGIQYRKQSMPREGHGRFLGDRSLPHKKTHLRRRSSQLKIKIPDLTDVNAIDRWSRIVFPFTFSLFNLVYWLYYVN
T2 sequence (P18507 40-475): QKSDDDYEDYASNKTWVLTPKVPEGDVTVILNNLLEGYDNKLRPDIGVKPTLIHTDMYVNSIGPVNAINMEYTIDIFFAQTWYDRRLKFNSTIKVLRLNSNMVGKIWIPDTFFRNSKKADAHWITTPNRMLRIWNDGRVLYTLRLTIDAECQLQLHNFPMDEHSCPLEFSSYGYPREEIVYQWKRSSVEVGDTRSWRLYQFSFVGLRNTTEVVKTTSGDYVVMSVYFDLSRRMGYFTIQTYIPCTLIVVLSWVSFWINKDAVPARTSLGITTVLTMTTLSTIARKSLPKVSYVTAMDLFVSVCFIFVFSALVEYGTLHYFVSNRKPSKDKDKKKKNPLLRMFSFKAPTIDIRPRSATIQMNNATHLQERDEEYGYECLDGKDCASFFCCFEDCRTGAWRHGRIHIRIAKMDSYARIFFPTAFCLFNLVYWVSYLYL
T1 sequence (P62813 28-455): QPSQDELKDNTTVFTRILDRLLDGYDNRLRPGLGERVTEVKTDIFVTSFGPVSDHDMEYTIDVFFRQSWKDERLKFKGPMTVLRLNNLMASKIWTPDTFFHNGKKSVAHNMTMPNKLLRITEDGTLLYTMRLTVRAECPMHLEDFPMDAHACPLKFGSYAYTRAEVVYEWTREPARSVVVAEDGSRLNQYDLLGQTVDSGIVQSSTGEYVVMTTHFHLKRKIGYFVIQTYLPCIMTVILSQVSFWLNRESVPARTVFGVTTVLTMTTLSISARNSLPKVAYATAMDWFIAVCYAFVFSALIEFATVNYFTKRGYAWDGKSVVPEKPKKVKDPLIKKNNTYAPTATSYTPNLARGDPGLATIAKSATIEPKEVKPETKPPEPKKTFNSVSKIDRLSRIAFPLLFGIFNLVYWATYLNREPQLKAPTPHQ
T1 sequence (P63079 26-473 partner): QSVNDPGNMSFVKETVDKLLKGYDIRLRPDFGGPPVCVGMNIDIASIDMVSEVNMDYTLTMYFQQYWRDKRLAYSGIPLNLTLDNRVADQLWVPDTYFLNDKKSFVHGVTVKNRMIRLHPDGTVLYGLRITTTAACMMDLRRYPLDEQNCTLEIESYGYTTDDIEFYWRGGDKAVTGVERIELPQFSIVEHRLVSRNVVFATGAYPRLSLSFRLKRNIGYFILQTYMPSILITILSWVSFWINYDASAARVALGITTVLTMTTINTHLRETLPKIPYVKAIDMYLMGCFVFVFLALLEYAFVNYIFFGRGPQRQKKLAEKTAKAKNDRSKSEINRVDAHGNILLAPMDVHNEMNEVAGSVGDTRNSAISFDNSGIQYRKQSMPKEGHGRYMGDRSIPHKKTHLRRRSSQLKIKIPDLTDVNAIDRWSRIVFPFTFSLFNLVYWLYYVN
T1 sequence (P18508 39-466): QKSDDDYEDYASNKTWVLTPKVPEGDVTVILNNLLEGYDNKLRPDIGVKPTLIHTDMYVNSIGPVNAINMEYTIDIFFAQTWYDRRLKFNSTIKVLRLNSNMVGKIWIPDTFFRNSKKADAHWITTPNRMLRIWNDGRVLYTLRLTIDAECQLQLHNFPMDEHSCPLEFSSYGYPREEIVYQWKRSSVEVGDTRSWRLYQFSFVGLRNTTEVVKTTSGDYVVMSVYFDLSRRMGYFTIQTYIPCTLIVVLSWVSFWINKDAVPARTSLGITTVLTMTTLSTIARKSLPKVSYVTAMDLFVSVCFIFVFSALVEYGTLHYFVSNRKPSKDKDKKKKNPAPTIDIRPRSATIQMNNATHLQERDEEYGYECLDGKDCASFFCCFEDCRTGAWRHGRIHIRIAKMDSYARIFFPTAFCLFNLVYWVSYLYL

Row | SMILES | antagonism in zolpidem discrimination [1] | % of GABA response, α1 (GABAA α1β3γ2 receptors) | reversal of suppression produced by chlordiazepoxide (2.5-10 mg/kg) (rats) | IC50 [2] | response in pentylenetetrazole seizure model (mice [3]) | intrinsic activity in the open field (mice [4]) | selectivity for A1 over the A5 subtype (α1β3γ2 GABAA receptor) | selectivity for GABAA1 over the A2 and A3 receptors (α1β3γ2 GABAA receptor) | dose required to reduce sucrose reinforcer compared to alcohol ([5]; i.p.) | sucrose-maintained responding ([5]; i.p. 10 mg/kg) | EtOH-maintained responding ([5]; i.p. 1-10 mg/kg, alternate-day access) | reduction of EtOH responding 24 hr post-drug ([5]; unilateral VP infusion 2.5-7.5 μg, 24 hr post-drug administration) | EtOH-maintained responding ([5]; unilateral infusion 0.5-7.5 μg into VP) | alcohol-maintained responding ([5]; unilateral infusion into CPu/NACC)
1 | CCCOc1cc2c(cn1)[nH]c1ccccc12.Cl [3-PBC, 3-Propoxy-β-carboline hydrochloride] | surmountable antagonism | 113±4% | reversed the suppression produced by chlordiazepoxide | 11 nM | “neutral” antagonist-like response |  |  |  |  |  |  |  |  | 
2 | CC(C)(C)OC(=O)c1cc2c(cn1)[nH]c1ccccc12 [βCCt, β-carboline-3-carboxylate t-butyl ester] |  |  |  |  |  | failed to produce intrinsic activity | > 110 fold | > 10 fold | four-fold higher dose | marked suppression | dose-dependently suppressed | 54-63 % of control levels | dose-dependently reduced | completely ineffective
